PMC11508334, “In Vitro Evaluation of New 5-Nitroindazolin-3-one Derivatives as Promising Agents against Trypanosoma cruzi” (International Journal of Molecular Sciences, 2024)

Experiments:
[1] = test system: Dm28c trypomastigotes; test: Trypomastigote viability study (MTT); type: cell-based, Trypanosoma cruzi; details: for IC50: Trypanosoma cruzi, T. cruzi Dm28c trypomastigotes, 24 h, MTT; for SI Trypomastigote: Selectivity Index IC50 macrophages RAW 264.7/IC50 trypomastigotes Dm28c
Description: Vero cells (ATCC CCL-81) were infected with Dm28c trypomastigotes at a 1:3 (cell: parasite) ratio. T. cruzi trypomastigotes were initially obtained from primary cultures of peritoneal macrophage from chagasic mice. […] Vero cell cultures were then infected with trypomastigotes and incubated at 37 °C in humidified air and 5% CO2 for 5–7 days. After that time, the culture medium was collected and centrifuged at 500× g for 5 min. The trypomastigote-containing pellet was re-suspended in RPMI 1640 supplemented with inactivated FBS and penicillin–streptomycin at a final 1 × 10^7 parasites/mL density. Trypomastigote viability assays were performed using the MTT reduction method as described previously. Then, 1 × 10^7 parasites/mL was incubated in RPMI 1640 with inactivated FBS at 37 °C for 24 h with or without the studied compounds.

[2] = test system: RAW 264.7 cells; test: Cytotoxicity MTT assay on RAW 264.7 cells; type: cell-based; details: Mus musculus, RAW264.7, in vitro cytotoxicity, murine RAW 264.7 macrophages
Description: The compounds under study, dissolved in dimethylsulfoxide (DMSO), were added to the culture media at 10–200 μM. RAW 264.7 cells were cultured in 96-well plates (5 × 10^4 cells per well), and 100 μL of 0.5 mg/mL MTT was added to each well. The DMSO final concentration was less than 0.1% v/v. After incubation for 4 h at 37 °C, the generated water-insoluble formazan dye was dissolved by adding 100 μL of 10% w/v sodium dodecyl sulfate (SDS) in 0.01 M HCl. The plates were further incubated overnight at 37 °C; […] 0.5% of Triton X-100 was added as a positive control. The plates were further incubated overnight at 37 °C, and the optical density of the wells was determined using a microplate reader (Asys Expert Plus©, Asys Hitachi, Vienna, Austria) at 570 nm. Under these conditions, the optical density is directly proportional to the viable cell number in each well. All experiments were performed at least thrice and data were reported as means and their standard deviations from triplicate cultures. Results are reported as IC50 regarding the control (uninfected cells in culture medium)

[3] = test system: T. cruzi epimastigote stage (Dm28c strain); test: Epimastigotes viability study (MTT); type: cell-based, Trypanosoma cruzi; details: for SI Epimastigote: Selectivity Index IC50 macrophages RAW 264.7/IC50 epimastigotes Dm28c; for IC50: Trypanosoma cruzi, T. cruzi Dm28c epimastigotes, 24 h, MTT
Description: The trypanocidal activity was evaluated against the T. cruzi epimastigote stage (Dm28c strain). It was measured through the MTT assay using 0.22 mg/mL phenazine methosulfate (as an electron carrier). T. cruzi epimastigote from the author's collection (Programa de Farmacología Molecular y Clínica, Facultad de Medicina, Universidad de Chile, Santiago, Chile) were grown at 28 °C in liver infusion tryptase (LIT) medium, as reported earlier, but replacing blood with 4 μM hemin. […] fetal bovine serum (FBS) was added to a final concentration of 10% v/v. In this colorimetric assay for testing the trypanocidal activity, the compounds were dissolved in DMSO. They were added to 3 × 10^6 parasites/mL at 100 μM final concentrations in RPMI 1640 culture medium without phenol red for 24 h at 28 °C. The final concentration of DMSO was less than 0.1% v/v. […] The MTT assay, which was described previously, determined the viability of the epimastigotes.

[4] = test system: CL-B5 epimastigotes; design: method as in PMID 23124218; details: cited from earlier work
[5] = Cyclic voltammetry, reduction of nitro group; type: physicochemical; details: for −EpaIII: anodic peak potential of couple IIIc/IIIa; for −EpaIII / −EpcIII / −E1/2: given with inverted sign, vs. Ag/AgCl electrode in DMSO; for −EpcIII: cathodic peak potential of couple IIIc/IIIa; for Ipa/Ipc: current ratio RNO2/RNO2•−, couple IIIc/IIIa, DMSO; for −E1/2: half-wave potential of couple IIIc/IIIa
Description: Cyclic Voltammetry (CV) was carried out using a Metrohm Autolab instrument model PGSTAT204, using dimethyl sulfoxide (DMSO) as the solvent (1 mM solutions), tetrabutylammonium perchlorate (0.1 M TBAP) as the supporting electrolyte, a hanging drop mercury electrode (HDME) as the working electrode, Ag/AgCl (3M KCl) as the reference electrode, and a graphite rod as the counter electrode. All measurements were performed after bubbling with nitrogen (N2) for 10 min.
Using Nicholson’s procedure, the Ipa/Ipc values (RNO2/RNO2^•−) were measured from each cyclic voltammogram with a scan rate between 0.1 and 2.5 V/s.

[6] = test system: RAW 264.7 cells; test: Plasma membrane permeability (SYTOX Green) of RAW 264.7 cells; type: cell-based, murine
[7] = test system: trypomastigotes of T. cruzi; test: Plasmatic membrane permeability assay (SYTOX Green) on trypomastigotes; type: cell-based, Trypanosoma cruzi; details: compound at IC50, 1 h
Description: Late growth-phase trypomastigotes of T. cruzi (3 × 10^6/well) were washed and incubated in the dark with 1 μM SYTOX Green probe (Molecular Probes) in HANKS′ balanced salts solution (HBSS; Sigma-Aldrich) supplemented with 10 mM D-glucose (HBSS + Glu). The test compound was added at IC50, and fluorescence was measured after 1 h of treatment. The maximum permeabilization was obtained with 0.5% Triton X-100. Fluorescence intensity was determined using Varioskan™ LUX multimode microplate reader (ThermoFisher Scientific, Waltham, MA, USA), with excitation and emission wavelengths of 485 and 520 nm, respectively. The following internal controls were used in the evaluation: (i) the background fluorescence of the compound at the respective wavelengths and (ii) the possible interference of DMSO. Samples were tested in triplicate.

[8] = test system: Dm28c trypomastigote of T. cruzi; test: Mitochondrial membrane potential (TMRM incorporation); type: cell-based, Trypanosoma cruzi; details: trypomastigotes, compound at IC50, 3 h; compared to negative control
Description: Mitochondrial membrane potential (ψm) was determined by the incorporation of the fluorescent probe tetramethylrhodamine methyl ester (TMRM). […] Then, carbonylcyanide-m-chlorophenylhydrazone (CCCP, 10 µM) was added as a control and incubated at 37 °C in humidified air and 5% CO2 for 3 h. Parasites were washed with phosphate-buffered saline (pH 7.4), and suspensions were incubated with TMRM (50 nM) for 15 min. Fluorescence measurements determined the incorporation of the probe at an excitation wavelength of 550 nm and an emission of 590 nm. All the assays were performed in darkness.

[9] = test system: trypomastigote form of T. cruzi; test: Analysis of ATP levels (CellTiter-Glo); type: cell-based, Trypanosoma cruzi; details: trypomastigotes; relative to negative control
Description: The CellTiter-Glo® Luminescent Cell Viability Assay (Promega, Fitchburg, WI, USA) was used to detect variations in ATP levels. After incubation, treated parasites were centrifuged (6000 rpm, 10 min, 4 °C) and treated according to the manufacturer’s instructions. Luminescence was determined using the Varioskan™ LUX multi-mode microplate reader (ThermoFisher Scientific). Results were expressed as a percentage relative to the negative control without treatment. Sodium azide (20 mM NaN3 for 3 h) was added as a positive control and benznidazole as a reference treatment. (1) %relative control=luminescence sample/luminescence control∗100

Cn1c2ccc([N+](=O)[O-])cc2c(=O)n1Cc1ccccc1 [Compound 1]
IC50 [1]: > 100 µM
IC50 [2]: 37.8 ± 1.2 µM
SI Epimastigote [3]: 3.7
IC50 [3]: 10.1 ± 0.6 µM
trypanocidal activity against CL-B5 epimastigotes [4]: effective against CL-B5 epimastigotes
−EpaIII [5]: 1.02 V
−EpcIII [5]: 1.12 V
Ipa/Ipc [5]: 0.94
−E1/2 [5]: 1.07 V

CCCn1c2ccc([N+](=O)[O-])cc2c(=O)n1Cc1ccccc1 [Compound 2a]
trypanocidal activity against CL-B5 epimastigotes [4]: effective against CL-B5 epimastigotes

CC(C)n1c2ccc([N+](=O)[O-])cc2c(=O)n1Cc1ccccc1 [Compound 2b]
trypanocidal activity against CL-B5 epimastigotes [4]: effective against CL-B5 epimastigotes

Cn1[nH]c2ccc([N+](=O)[O-])cc2c1=O [Compound 3a]
SI Trypomastigote [1]: 1.4
IC50 [1]: 18.5 ± 0.9 µM
IC50 [2]: 26.1 ± 0.8 µM
SI Epimastigote [3]: 2.9
IC50 [3]: 8.9 ± 1.3 µM
−EpaIII [5]: 0.95 V
−EpcIII [5]: 1.13 V
Ipa/Ipc [5]: 0.99
−E1/2 [5]: 1.04 V
effect on plasma membrane permeability (SYTOX Green incorporation) [6]: significantly affect permeability

Cn1c(=O)c2cc([N+](=O)[O-])ccc2n1C [Compound 3b]
SI Trypomastigote [1]: >4.8
IC50 [1]: 41.8 ± 1.1 µM
IC50 [2]: > 200 µM
IC50 [3]: 28.6 ± 2.1 µM
alteration of plasma membrane permeability (SYTOX Green incorporation) [7]: alter plasma membrane permeability
−EpaIII [5]: 1.03 V
−EpcIII [5]: 1.13 V
Ipa/Ipc [5]: 1.00
−E1/2 [5]: 1.08 V
effect on mitochondrial membrane potential (ψm) [8]: statistically significant impact
ATP levels [9]: significantly reduced ATP levels

Cn1c2ccc([N+](=O)[O-])cc2c(=O)n1Cc1ccc(Cl)cc1 [Compound 11, 2-(4-Chlorobenzyl)-1-methyl-5-nitro-1,2-dihydro-3H-indazol-3-one]
SI Trypomastigote [1]: 1.0
IC50 [1]: 67.8 ± 1.7 µM
IC50 [2]: 68.8 ± 1.2 µM
SI Epimastigote [3]: 1.0
IC50 [3]: 70.1 ± 2.1 µM
−EpaIII [5]: 0.99 V
−EpcIII [5]: 1.21 V
Ipa/Ipc [5]: 0.89
−E1/2 [5]: 1.10 V
effect on plasma membrane permeability (SYTOX Green incorporation) [6]: significantly affect permeability
melting point: 128 to 130 °C

Cn1c2ccc([N+](=O)[O-])cc2c(=O)n1Cc1cccc(Br)c1 [Compound 13, 2-(3-Bromobenzyl)-1-methyl-5-nitro-1,2-dihydro-3H-indazol-3-one]
SI Trypomastigote [1]: >4.6
IC50 [1]: 43.6 ± 1.1 µM
IC50 [2]: > 200 µM
SI Epimastigote [3]: >2.5
IC50 [3]: 79.8 ± 2.3 µM
alteration of plasma membrane permeability (SYTOX Green incorporation) [7]: alter plasma membrane permeability
−EpaIII [5]: 0.99 V
−EpcIII [5]: 1.13 V
Ipa/Ipc [5]: 0.97
−E1/2 [5]: 1.06 V
effect on mitochondrial membrane potential (ψm) [8]: statistically significant impact
melting point: 149 to 151 °C
ATP levels [9]: significantly reduced ATP levels

COc1ccccc1Cn1c(=O)c2cc([N+](=O)[O-])ccc2n1C [Compound 15, 2-(2-Methoxybenzyl)-1-methyl-5-nitro-1,2-dihydro-3H-indazol-3-one]
IC50 [1]: > 100 µM
IC50 [2]: 36.3 ± 1.1 µM
IC50 [3]: > 100 µM
−EpaIII [5]: 1.04 V
−EpcIII [5]: 1.16 V
Ipa/Ipc [5]: 0.96
−E1/2 [5]: 1.10 V
effect on plasma membrane permeability (SYTOX Green incorporation) [6]: significantly affect permeability
melting point: 210 to 212 °C

O=c1[nH]n(-c2ccccc2)c2ccc([N+](=O)[O-])cc12 [Compound 22]
SI Trypomastigote [1]: >13.1
IC50 [1]: 15.3 ± 1.2 µM
IC50 [2]: > 200 µM
SI Epimastigote [3]: >32.3
IC50 [3]: 6.2 ± 0.9 µM
alteration of plasma membrane permeability (SYTOX Green incorporation) [7]: alter plasma membrane permeability
−EpaIII [5]: 1.26 V
Ipa/Ipc [5]: 0.59
−E1/2 [5]: 1.33 V
effect on mitochondrial membrane potential (ψm) [8]: statistically significant impact
ATP levels [9]: significantly reduced ATP levels
